Laboratory results taken from patent US20060094002A1 (priority 2002, published 2006).

System: Aspergillus (A. nidulans, A. niger, A. awamori)
Assay: Effect of known antifungal drugs on [Ca2+]c in different Aspergillus species
Format: cell-based
Settings: FIGS. 22a, b
Source text: Procedure: • The fungus can be either transformed with the recombinant aequorin gene or can be injected with the active aequorin. • Then this fungus can be subjected to a range of the antifungal drugs, profiles of which have already been created. • Obtained profiles can be compared with the library of the fingerprints and this way the fungal species can be identified.

SMILES	[Ca^2+]c response in 3 different species of Aspergillus
C[C@@H]1[C@H](O)[C@@H](C)/C=C/C=C/C=C/C=C/C=C/C=C/C=C/[C@H](O[C@@H]2O[C@H](C)[C@@H](O)[C@H](N)[C@@H]2O)C[C@@H]2O[C@](O)(C[C@@H](O)C[C@@H](O)[C@H](O)CC[C@@H](O)C[C@@H](O)CC(=O)O[C@H]1C)C[C@H](O)[C@H]2C(=O)O [amphotericin B]	caused a different [Ca^2+]c response
Clc1ccccc1C(c1ccccc1)(c1ccccc1)n1ccnc1 [clotrimazole]	caused a different [Ca^2+]c response
CCCCC[C@@H](O)[C@H]1C(=O)O[C@H](C)[C@@H](O)/C=C/C=C/C=C/C=C/C=C(\C)[C@@H](O)C[C@H](O)C[C@H](O)C[C@H](O)C[C@H](O)C[C@H](O)C[C@@H]1O [filipin]	caused a different [Ca^2+]c response
CC(=O)N1CCN(c2ccc(OCC3COC(Cn4ccnc4)(c4ccc(Cl)cc4Cl)O3)cc2)CC1 (centres unmarked) [ketoconazole]	caused a different [Ca^2+]c response
C[C@@H]1[C@H](O)[C@@H](C)/C=C/C=C/CC/C=C/C=C/C=C/C=C/C(O[C@H]2O[C@H](C)[C@@H](O)[C@H](N)[C@@H]2O)CC2O[C@](O)(CC(O)C(O)CCC(O)CC(O)CC(O)CC(=O)O[C@H]1C)CC(O)C2C(=O)O (some centres unmarked) [nystatin]	caused a different [Ca^2+]c response
